Results taken from patent US12091426B2, “Bifunctional degraders of hematopoietic progenitor kinase and therapeutic uses thereof” (Nurix Therapeutics, Inc., priority 2021, dated 2024).

Molecular target: T1, HPK1 (Homo sapiens, UniProt Q92918)
T1 construct: A HiBiT tag was introduced by CRISPR on the N terminus of HPK1 in Jurkat cells; host or cells: Jurkat cells (ATCC TIB-152), monoclonal line with CRISPR knock-in of HiBiT at the endogenous HPK1 locus
Test: HPK1 Cellular HiBit Degradation Assay
Format: cell-based
Details: HiBiT HPK1 Jurkat cells, 24 hrs; for DC50: concentration at which 50% of HPK1 was remaining, read-out: DC50 Category; for Dmax: Jurkat, maximum degradation vs DMSO vehicle control, read-out: Dmax Category
Procedure, shortened: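 Jurkat cells with CRISPR N-terminal HiBiT-tagged endogenous HPK1 treated 24 h at 37 °C with 11-point, 3.16-fold dilutions (10 uM to 0.1 nM final). HiBiT lytic luminescence gives % HPK1 remaining versus DMSO, with parental cells as background. Four-parameter fit yields DC50; Dmax = 100 minus lowest % remaining.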

T1 sequence (Q92918 whole entry): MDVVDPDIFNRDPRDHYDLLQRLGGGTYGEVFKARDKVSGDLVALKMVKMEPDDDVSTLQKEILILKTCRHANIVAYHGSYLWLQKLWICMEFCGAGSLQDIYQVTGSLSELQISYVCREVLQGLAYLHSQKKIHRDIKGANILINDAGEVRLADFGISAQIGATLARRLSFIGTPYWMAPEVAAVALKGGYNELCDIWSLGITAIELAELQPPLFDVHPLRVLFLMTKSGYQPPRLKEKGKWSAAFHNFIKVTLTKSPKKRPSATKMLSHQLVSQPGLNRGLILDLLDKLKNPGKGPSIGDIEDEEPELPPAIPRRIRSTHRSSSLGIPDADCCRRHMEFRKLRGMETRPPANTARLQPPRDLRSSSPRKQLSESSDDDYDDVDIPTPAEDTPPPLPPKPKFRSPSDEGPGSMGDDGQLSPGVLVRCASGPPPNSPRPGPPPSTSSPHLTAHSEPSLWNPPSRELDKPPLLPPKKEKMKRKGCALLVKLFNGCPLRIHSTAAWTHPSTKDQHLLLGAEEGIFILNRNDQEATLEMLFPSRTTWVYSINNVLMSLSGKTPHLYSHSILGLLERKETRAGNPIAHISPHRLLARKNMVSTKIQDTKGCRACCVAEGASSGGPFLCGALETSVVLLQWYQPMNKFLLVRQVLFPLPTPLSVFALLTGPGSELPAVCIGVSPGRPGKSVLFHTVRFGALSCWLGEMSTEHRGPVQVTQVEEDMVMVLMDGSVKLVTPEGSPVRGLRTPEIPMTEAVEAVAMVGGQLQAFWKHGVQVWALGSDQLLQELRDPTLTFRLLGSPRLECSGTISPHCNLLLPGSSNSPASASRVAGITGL

DC50 [µM]	Dmax [%]	Structure (SMILES)
< 0.1	70 to 85	CC(C)n1cnc2cc(-c3ccc4c(c3)N([C@H]3C[C@@H](N5CCCCC5)C3)C(=O)C43CCN(C(=O)C4CCN(C(=O)[C@H]5CC[C@H](C(=O)N6CCCc7cc(C8CCC(=O)NC8=O)ccc76)CC5)CC4)CC3)nc(Nc3ccccc3F)c21 (mixture of isomers) [Example 51, (3RS)-3-{1-[(1R,4R)-4-{4-[(6-{4-[(2-fluorophenyl)amino]-3-(propan-2-yl)-3H-imidazo[4,5-c]pyridin-6-yl}-2-oxo-1-[(1S,3S)-3-(piperidin-1-yl)cyclobutyl]-1,2-dihydrospiro[indole-3,4′-piperidin]-1′-yl)carbonyl]piperidine-1-carbonyl}cyclohexanecarbonyl]-1,2,3,4-tetrahydroquinolin-6-yl}piperidine-2,6-dione]
< 0.1	70 to 85	CC(C)n1cnc2cc(-c3ccc4c(c3)N([C@H]3C[C@@H](N5CCCCC5)C3)C(=O)C43CCN(C(=O)[C@@H]4CCCN(C(=O)C5CCN(c6ccc(C7CCC(=O)NC7=O)cn6)CC5)C4)CC3)nc(NC3CC3)c21 (mixture of isomers) [Example 264, (3RS)-3-(6-{4-[(3R)-3-({6-[4-(cyclopropylamino)-3-(propan-2-yl)-3H-imidazo[4,5-c]pyridin-6-yl]-2-oxo-1-[(1S,3S)-3-(piperidin-1-yl)cyclobutyl]-1,2-dihydrospiro[indole-3,4′-piperidin]-1′-yl}carbonyl)piperidine-1-carbonyl]piperidin-1-yl}pyridin-3-yl)piperidine-2,6-dione]
< 0.1	> 85	CC(C)n1cnc2cc(-c3ccc4c(c3)N([C@H]3C[C@@H](N5CCCCC5)C3)C(=O)C43CCN(C(=O)[C@@H]4CCN(C(=O)[C@H]5CC[C@H](N(C)c6ccc(C7CCC(=O)NC7=O)cn6)CC5)C4)CC3)nc(Nc3ccccc3F)c21 (mixture of isomers) [Example 127, (3RS)-3-(6-{METHYL [(1R,4R)-4-[(3R)-3-[(6-{4-[(2-fluorophenyl)amino]-3-(propan-2-yl)-3H-imidazo[4,5-c]pyridin-6-yl}-2-oxo-1-[(1S,3S)-3-(piperidin-1-yl)cyclobutyl]-1,2-dihydrospiro[indole-3,4′-piperidin]-1′-yl)carbonyl]pyrrolidine-1-carbonyl]cyclohexyl]amino}pyridin-3-yl)piperidine-2,6-dione]
0.1 to 0.5	50 to 70	CC(C)n1cnc2cc(-c3ccc4c(c3)N([C@H]3C[C@@H](N5CCCCC5)C3)C(=O)C43CCN(C(=O)c4cccc(C5CCN(C(=O)C6CCN(c7ccc(C8CCC(=O)NC8=O)cn7)CC6)CC5)c4)CC3)nc(NC3CC3)c21 (mixture of isomers) [Example 301, (3RS)-3-[6-(4-{4-[3-({6-[4-(cyclopropylamino)-3-(propan-2-yl)-3H-imidazo[4,5-c]pyridin-6-yl]-2-oxo-1-[(1S,3S)-3-(piperidin-1-yl)cyclobutyl]-1,2-dihydrospiro[indole-3,4′-piperidin]-1′-yl}carbonyl)phenyl]piperidine-1-carbonyl}piperidin-1-yl)pyridin-3-yl]piperidine-2,6-dione]
< 0.1	70 to 85	CC(C)n1cnc2cc(-c3ccc4c(c3)N([C@H]3C[C@@H](N5CCCCC5)C3)C(=O)C43CCN(C(=O)[C@H]4CC[C@H](C(=O)N5CCC(Nc6ccc(C7CCC(=O)NC7=O)cn6)CC5)CC4)CC3)nc(Nc3ccccc3F)c21 (stereo partly drawn) [Example 26, 3-(6-((1-((1R,4R)-4-(6-(4-((2-fluorophenyl)amino)-3-isopropyl-3H-imidazo[4,5-c]pyridin-6-yl)-2-oxo-1-((1s,3S)-3-(piperidin-1-yl)cyclobutyl)spiro[indoline-3,4′-piperidine]-1′-carbonyl)cyclohexane-1-carbonyl)piperidin-4-yl)amino)pyridin-3-yl)piperidine-2,6-dione]
< 0.1	50 to 70	CC(C)n1cnc2cc(-c3ccc4c(c3)N([C@H]3C[C@@H](N5CCCCC5)C3)C(=O)C43CCN(C(=O)[C@@H]4CCN(C(=O)[C@H]5CC[C@H](Nc6cccc7c6n(C)c(=O)n7C6CCC(=O)NC6=O)CC5)C4)CC3)nc(Nc3ccccc3F)c21 (mixture of isomers) [Example 144, (3RS)-3-(3-methyl-2-oxo-4-{[(1R,4R)-4-[(3R)-3-[(6-{4-[(2-fluorophenyl)amino]-3-(propan-2-yl)-3H-imidazo[4,5-c]pyridin-6-yl}-2-oxo-1-[(1S,3S)-3-(piperidin-1-yl)cyclobutyl]-1,2-dihydrospiro[indole-3,4′-piperidin]-1′-yl)carbonyl]pyrrolidine-1-carbonyl]cyclohexyl]amino}-2,3-dihydro-1H-1,3-benzodiazol-1-yl)piperidine-2,6-dione]
0.1 to 0.5	50 to 70	CC(C)n1cnc2cc(-c3ccc4c(c3)N([C@H]3C[C@@H](N5CCCCC5)C3)C(=O)C43CCN(C(=O)[C@H]4C[C@@H](C)CN(C(=O)C5CCN(c6ccc(C7CCC(=O)NC7=O)cn6)CC5)C4)CC3)nc(NC3CC3)c21 (mixture of isomers) [Example 246, (3RS)-3-(6-{4-[(3S,5R)-3-({6-[4-(cyclopropylamino)-3-(propan-2-yl)-3H-imidazo[4,5-c]pyridin-6-yl]-2-oxo-1-[(1S,3S)-3-(piperidin-1-yl)cyclobutyl]-1,2-dihydrospiro[indole-3,4′-piperidin]-1′-yl}carbonyl)-5-methylpiperidine-1-carbonyl]piperidin-1-yl}pyridin-3-yl)piperidine-2,6-dione]

The next lines start with the compound.

Structure (SMILES)	DC50 [µM]	Dmax [%]
CC(C)n1cnc2cc(-c3ccc4c(c3)N([C@H]3C[C@@H](N5CCCCC5)C3)C(=O)C43CCN(C(=O)CN4CCN(C(=O)C5CCN(c6ccc(C7CCC(=O)NC7=O)cn6)CC5)CC4)CC3)nc(NC3CC3)c21 (mixture of isomers) [Example 243, (3RS)-3-(6-{4-[4-(2-{6-[4-(cyclopropylamino)-3-(propan-2-yl)-3H-imidazo[4,5-c]pyridin-6-yl]-2-oxo-1-[(1S,3S)-3-(piperidin-1-yl)cyclobutyl]-1,2-dihydrospiro[indole-3,4′-piperidin]-1′-yl}-2-oxoethyl)piperazine-1-carbonyl]piperidin-1-yl}pyridin-3-yl)piperidine-2,6-dione]	< 0.1	70 to 85
CC(C)n1cnc2cc(-c3ccc4c(c3)N([C@H]3C[C@@H](N5CCCCC5)C3)C(=O)C43CCN(C(=O)C4(C)CCN(C(=O)C5CCN(c6ccc7c(c6)C(=O)N(C6CCC(=O)NC6=O)C7=O)CC5)CC4)CC3)nc(NC3CC3)c21 (some centres unmarked) [Example 121, 5-{4-[4-({6-[4-(cyclopropylamino)-3-(propan-2-yl)-3H-imidazo[4,5-c]pyridin-6-yl]-2-oxo-1-[(1s,3s)-3-(piperidin-1-yl)cyclobutyl]-1,2-dihydrospiro[indole-3,4′-piperidin]-1′-yl}carbonyl)-4-methylpiperidine-1-carbonyl]piperidin-1-yl}-2-(2,6-dioxopiperidin-3-yl)-2,3-dihydro-1H-isoindole-1,3-dione]	0.5 to 1	50 to 70
CC(C)n1cnc2cc(-c3ccc4c(c3)N([C@H]3C[C@@H](N5CCCCC5)C3)C(=O)C43CCN(C(=O)C4CCN(C(=O)C5CCN(c6ccc(C7CCC(=O)NC7=O)cn6)CC5)C5(CCC5)C4)CC3)nc(NC3CC3)c21 (mixture of isomers) [Example 270, (3RS)-3-(6-{4-[8-({6-[4-(cyclopropylamino)-3-(propan-2-yl)-3H-imidazo[4,5-c]pyridin-6-yl]-2-oxo-1-[(1S,3S)-3-(piperidin-1-yl)cyclobutyl]-1,2-dihydrospiro[indole-3,4′-piperidin]-1′-yl}carbonyl)-5-azaspiro[3.5]nonane-5-carbonyl]piperidin-1-yl}pyridin-3-yl)piperidine-2,6-dione]	< 0.1	70 to 85
CC(C)n1cnc2cc(-c3ccc4c(c3)N([C@H]3C[C@@H](N5CCCCC5)C3)C(=O)C43CCN(CC(=O)N(C)C4CCN(C(=O)C5CCN(c6ccc(C7CCC(=O)NC7=O)cn6)CC5)CC4)CC3)nc(NC3CC3)c21 (stereo partly drawn) [Example 200, 2-{6-[4-(cyclopropylamino)-3-(propan-2-yl)-3H-imidazo[4,5-c]pyridin-6-yl]-2-oxo-1-[(1S,3S)-3-(piperidin-1-yl)cyclobutyl]-1,2-dihydrospiro[indole-3,4′-piperidin]-1′-yl}-N-(1-{1-[5-(2,6-dioxopiperidin-3-yl)pyridin-2-yl]piperidine-4-carbonyl}piperidin-4-yl)-N-methylacetamide]	0.1 to 0.5	> 85
CC(C)n1cnc2cc(-c3ccc4c(c3)N([C@H]3C[C@@H](N5C6CCC5COC6)C3)C(=O)C43CCN(C(=O)C4(C)CCN(C(=O)CC5CCN(c6ccc(C7CCC(=O)NC7=O)cn6)CC5)CC4)CC3)nc(NC3CC3)c21 (mixture of isomers) [Example 222, (3RS)-3-[6-(4-{2-[4-({6-[4-(cyclopropylamino)-3-(propan-2-yl)-3H-imidazo[4,5-c]pyridin-6-yl]-2-oxo-1-[(1S,3S)-3-{3-oxa-8-Azabicyclo[3.2.1]octan-8-yl}cyclobutyl]-1,2-dihydrospiro[indole-3,4′-piperidin]-1′-yl}carbonyl)-4-methylpiperidin-1-yl]-2-oxoethyl}piperidin-1-yl)pyridin-3-yl]piperidine-2,6-dione]	0.1 to 0.5	50 to 70
CC(C)n1cnc2cc(-c3ccc4c(c3)N([C@H]3C[C@@H](N5CCCCC5)C3)C(=O)C43CCN(C(=O)[C@H]4CN(C(=O)C5CCN(c6ccc(C7CCC(=O)NC7=O)cn6)CC5)C[C@H]4C)CC3)nc(NC3CC3)c21 (mixture of isomers) [Example 248, (3RS)-3-(6-{4-[(3R,4S)-3-({6-[4-(cyclopropylamino)-3-(propan-2-yl)-3H-imidazo[4,5-c]pyridin-6-yl]-2-oxo-1-[(1S,3S)-3-(piperidin-1-yl)cyclobutyl]-1,2-dihydrospiro[indole-3,4′-piperidin]-1′-yl}carbonyl)-4-methylpyrrolidine-1-carbonyl]piperidin-1-yl}pyridin-3-yl)piperidine-2,6-dione]	< 0.1	> 85
